According to ChEMBL document CHEMBL5291721, “A preclinical secondary pharmacology resource illuminates target-adverse drug reaction associations of marketed drugs” (Nat Commun, 2023):

Key:
[1] = biological target: Beta-1 adrenergic receptor (Homo sapiens, UniProt P08588); type: functional
[2] = biological target: 5-hydroxytryptamine receptor 2B (Homo sapiens, UniProt P41595); type: functional, cell-based
[3] = biological target: Sodium-dependent noradrenaline transporter (Homo sapiens, UniProt P23975)
[4] = biological target: T1, 5-hydroxytryptamine receptor 3A (Homo sapiens, UniProt P46098); type: functional
T1 sequence (P46098 whole entry): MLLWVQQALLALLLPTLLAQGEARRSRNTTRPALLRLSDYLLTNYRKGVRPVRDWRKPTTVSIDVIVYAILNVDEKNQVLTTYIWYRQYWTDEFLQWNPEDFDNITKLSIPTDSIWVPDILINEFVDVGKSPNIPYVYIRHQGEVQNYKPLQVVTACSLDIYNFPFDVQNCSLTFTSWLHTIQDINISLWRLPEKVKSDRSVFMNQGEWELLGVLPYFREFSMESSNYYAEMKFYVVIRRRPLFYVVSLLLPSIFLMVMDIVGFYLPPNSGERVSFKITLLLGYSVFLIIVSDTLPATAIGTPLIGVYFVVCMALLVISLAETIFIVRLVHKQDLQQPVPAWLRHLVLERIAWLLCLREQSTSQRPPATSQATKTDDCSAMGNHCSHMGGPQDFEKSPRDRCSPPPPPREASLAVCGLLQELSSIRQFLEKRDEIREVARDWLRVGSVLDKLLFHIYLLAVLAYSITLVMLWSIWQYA

D(3) dopamine receptor = D(3) dopamine receptor (Homo sapiens, UniProt P35462)
Adenosine receptor A3 = biological target: T2, Adenosine receptor A3 (Homo sapiens, UniProt P0DMS8)
T2 sequence (P0DMS8 whole entry): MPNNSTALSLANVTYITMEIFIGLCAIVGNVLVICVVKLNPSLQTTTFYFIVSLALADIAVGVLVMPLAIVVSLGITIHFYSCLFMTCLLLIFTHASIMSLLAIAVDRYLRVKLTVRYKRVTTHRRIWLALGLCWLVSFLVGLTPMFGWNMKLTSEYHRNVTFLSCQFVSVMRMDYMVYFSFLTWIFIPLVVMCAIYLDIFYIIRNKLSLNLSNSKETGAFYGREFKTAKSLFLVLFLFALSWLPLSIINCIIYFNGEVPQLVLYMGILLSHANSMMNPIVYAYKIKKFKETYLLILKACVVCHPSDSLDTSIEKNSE

[5] = biological target: Neuronal acetylcholine receptor subunit alpha-4 (Homo sapiens, UniProt P43681)
Bile salt export pump = Bile salt export pump (Homo sapiens, UniProt O95342); type: functional
[6] = biological target: T3, 5-hydroxytryptamine receptor 2C (Homo sapiens, UniProt P28335)
T3 sequence (P28335 whole entry): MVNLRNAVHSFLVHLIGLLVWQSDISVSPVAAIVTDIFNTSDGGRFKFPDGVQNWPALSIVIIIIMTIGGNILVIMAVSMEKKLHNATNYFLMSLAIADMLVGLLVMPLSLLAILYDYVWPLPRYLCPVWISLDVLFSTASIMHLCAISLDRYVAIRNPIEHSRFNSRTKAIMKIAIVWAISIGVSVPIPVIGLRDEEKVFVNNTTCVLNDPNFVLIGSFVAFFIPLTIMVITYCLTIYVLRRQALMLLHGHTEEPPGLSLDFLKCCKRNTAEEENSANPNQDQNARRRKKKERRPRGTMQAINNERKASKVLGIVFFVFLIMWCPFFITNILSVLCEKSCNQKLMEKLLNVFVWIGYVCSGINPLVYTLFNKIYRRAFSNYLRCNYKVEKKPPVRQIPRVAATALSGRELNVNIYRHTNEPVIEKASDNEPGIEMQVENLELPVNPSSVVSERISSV

D(1A) dopamine receptor = D(1A) dopamine receptor (Homo sapiens, UniProt P21728); type: functional, cell-based
[7] = biological target: Voltage-gated inwardly rectifying potassium channel KCNH2 (Homo sapiens, UniProt Q12809); type: functional; conditions: read-out: AC50
[8] = biological target: T4, Prostaglandin G/H synthase 1 (Rattus norvegicus, UniProt Q63921); type: functional
T4 sequence (Q63921 whole entry): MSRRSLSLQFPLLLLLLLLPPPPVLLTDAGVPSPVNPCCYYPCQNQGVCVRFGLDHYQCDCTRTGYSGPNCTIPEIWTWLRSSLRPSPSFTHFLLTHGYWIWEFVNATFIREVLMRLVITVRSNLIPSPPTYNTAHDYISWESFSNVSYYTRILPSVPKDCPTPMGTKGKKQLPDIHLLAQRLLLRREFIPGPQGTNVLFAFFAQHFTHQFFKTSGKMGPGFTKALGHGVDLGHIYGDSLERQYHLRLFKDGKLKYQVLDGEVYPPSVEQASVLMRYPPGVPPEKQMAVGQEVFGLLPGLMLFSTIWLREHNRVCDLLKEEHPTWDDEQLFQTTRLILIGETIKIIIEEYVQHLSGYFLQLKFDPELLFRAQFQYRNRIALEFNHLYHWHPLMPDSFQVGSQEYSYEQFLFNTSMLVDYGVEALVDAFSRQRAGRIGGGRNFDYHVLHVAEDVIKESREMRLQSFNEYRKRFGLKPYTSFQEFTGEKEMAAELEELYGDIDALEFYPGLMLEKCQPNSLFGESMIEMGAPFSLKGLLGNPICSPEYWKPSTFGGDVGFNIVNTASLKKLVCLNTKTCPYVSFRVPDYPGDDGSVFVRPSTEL

[9] = biological target: T5, Amine oxidase [flavin-containing] A (Homo sapiens, UniProt P21397); type: functional
T5 sequence (P21397 whole entry): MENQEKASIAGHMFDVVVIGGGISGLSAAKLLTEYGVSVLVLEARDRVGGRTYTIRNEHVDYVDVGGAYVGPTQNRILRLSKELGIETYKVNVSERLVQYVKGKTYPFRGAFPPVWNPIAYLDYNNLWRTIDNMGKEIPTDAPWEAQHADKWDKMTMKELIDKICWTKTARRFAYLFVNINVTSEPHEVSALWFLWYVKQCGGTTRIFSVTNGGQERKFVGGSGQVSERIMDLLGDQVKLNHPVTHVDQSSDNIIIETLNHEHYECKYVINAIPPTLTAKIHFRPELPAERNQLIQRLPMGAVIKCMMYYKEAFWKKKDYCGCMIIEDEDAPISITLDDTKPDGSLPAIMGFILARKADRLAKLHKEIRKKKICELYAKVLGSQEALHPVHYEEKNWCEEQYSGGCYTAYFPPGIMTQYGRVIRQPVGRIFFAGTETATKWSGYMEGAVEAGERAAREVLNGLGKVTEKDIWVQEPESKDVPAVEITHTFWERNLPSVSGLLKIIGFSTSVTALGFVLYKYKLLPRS

Vasopressin V1a receptor = Vasopressin V1a receptor (Homo sapiens, UniProt P37288)
Note: assay procedure not described here.

Sequence of Sodium-dependent noradrenaline transporter (P23975 whole entry): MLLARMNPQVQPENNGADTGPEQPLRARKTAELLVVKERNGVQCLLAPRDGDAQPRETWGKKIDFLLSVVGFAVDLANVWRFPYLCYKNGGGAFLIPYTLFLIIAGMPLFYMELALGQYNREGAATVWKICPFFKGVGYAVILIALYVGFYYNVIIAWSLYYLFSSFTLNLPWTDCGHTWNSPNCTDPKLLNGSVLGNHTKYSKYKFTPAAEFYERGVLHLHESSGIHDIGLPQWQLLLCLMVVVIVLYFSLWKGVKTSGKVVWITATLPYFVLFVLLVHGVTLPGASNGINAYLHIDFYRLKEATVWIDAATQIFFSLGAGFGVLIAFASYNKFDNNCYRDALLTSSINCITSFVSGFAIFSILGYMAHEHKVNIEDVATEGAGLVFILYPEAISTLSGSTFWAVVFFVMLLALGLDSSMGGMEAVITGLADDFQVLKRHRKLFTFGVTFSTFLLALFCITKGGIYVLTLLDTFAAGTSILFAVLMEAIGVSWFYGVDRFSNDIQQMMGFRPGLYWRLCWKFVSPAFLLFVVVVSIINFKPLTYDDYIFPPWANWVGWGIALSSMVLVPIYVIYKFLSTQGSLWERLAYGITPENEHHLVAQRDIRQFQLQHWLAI
Sequence of Bile salt export pump (O95342 whole entry): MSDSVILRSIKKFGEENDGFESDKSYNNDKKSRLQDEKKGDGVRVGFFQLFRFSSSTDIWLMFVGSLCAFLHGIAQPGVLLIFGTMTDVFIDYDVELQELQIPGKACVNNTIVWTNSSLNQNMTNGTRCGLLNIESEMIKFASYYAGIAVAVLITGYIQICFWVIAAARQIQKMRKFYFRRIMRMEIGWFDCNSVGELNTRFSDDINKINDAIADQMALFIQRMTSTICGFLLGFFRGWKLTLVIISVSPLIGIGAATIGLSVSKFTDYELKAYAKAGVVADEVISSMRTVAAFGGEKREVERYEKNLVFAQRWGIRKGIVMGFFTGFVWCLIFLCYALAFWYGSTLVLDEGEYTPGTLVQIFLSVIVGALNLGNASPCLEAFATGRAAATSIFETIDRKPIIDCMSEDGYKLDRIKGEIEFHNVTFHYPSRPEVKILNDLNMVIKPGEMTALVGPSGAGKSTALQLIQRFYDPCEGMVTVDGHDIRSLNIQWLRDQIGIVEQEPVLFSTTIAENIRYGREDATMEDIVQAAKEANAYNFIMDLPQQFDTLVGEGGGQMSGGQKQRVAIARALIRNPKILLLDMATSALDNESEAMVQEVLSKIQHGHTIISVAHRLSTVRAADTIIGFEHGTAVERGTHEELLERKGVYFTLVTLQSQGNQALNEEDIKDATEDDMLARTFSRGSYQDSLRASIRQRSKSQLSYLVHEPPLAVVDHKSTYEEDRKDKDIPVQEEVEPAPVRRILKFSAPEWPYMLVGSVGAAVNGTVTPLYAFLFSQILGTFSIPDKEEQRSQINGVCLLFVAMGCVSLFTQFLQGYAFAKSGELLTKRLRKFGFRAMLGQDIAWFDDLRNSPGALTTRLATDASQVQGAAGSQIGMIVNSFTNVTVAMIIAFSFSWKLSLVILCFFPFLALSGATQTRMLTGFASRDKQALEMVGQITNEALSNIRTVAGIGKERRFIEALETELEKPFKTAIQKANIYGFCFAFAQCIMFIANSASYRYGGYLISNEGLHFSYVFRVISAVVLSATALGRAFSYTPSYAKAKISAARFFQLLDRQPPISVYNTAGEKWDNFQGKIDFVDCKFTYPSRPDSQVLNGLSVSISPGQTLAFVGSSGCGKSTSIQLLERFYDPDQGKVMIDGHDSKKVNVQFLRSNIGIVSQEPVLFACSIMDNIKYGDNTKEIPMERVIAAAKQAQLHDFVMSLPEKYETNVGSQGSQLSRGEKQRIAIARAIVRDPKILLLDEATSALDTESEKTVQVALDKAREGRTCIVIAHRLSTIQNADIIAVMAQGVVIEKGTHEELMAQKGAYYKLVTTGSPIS
Sequence of Neuronal acetylcholine receptor subunit alpha-4 (P43681 whole entry): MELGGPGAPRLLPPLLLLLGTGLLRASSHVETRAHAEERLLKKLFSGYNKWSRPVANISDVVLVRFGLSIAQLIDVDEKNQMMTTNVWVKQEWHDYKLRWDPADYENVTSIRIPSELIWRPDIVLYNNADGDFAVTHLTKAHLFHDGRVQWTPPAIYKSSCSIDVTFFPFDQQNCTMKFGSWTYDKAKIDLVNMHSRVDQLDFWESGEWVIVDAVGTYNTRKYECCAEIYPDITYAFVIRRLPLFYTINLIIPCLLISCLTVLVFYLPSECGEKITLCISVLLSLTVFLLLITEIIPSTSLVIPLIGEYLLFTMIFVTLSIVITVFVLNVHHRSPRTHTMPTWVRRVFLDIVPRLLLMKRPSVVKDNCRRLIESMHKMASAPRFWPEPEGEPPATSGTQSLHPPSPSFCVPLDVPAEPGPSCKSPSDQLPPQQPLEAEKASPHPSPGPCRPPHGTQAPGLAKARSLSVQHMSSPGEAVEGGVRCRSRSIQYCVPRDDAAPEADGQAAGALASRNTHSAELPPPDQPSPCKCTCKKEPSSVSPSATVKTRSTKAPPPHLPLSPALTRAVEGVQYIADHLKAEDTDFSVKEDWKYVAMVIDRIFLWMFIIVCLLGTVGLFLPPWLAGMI
Sequence of D(1A) dopamine receptor (P21728 whole entry): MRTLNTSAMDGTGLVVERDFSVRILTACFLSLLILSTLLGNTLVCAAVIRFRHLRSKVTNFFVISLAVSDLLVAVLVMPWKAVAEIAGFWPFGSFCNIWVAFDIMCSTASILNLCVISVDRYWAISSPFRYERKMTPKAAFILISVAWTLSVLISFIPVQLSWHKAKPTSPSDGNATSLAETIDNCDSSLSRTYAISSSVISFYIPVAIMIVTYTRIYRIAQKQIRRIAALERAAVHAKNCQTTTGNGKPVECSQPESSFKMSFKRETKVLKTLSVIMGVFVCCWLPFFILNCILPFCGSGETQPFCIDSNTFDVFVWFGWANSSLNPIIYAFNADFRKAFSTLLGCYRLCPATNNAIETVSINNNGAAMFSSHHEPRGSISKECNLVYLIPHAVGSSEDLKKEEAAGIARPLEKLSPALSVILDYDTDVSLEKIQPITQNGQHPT
Sequence of 5-hydroxytryptamine receptor 2B (P41595 whole entry): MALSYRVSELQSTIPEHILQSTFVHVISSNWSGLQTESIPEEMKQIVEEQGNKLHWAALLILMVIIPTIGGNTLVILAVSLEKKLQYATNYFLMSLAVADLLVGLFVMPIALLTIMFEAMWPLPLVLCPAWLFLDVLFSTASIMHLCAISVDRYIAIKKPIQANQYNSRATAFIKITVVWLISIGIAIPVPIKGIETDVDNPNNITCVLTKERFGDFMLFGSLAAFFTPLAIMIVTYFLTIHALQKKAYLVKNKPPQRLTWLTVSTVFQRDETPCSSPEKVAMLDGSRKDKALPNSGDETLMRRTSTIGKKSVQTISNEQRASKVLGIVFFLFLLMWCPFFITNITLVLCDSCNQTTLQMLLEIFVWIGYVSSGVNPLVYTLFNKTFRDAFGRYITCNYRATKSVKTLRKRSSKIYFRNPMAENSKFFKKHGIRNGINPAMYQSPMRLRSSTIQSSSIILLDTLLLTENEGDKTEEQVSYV
Sequence of D(3) dopamine receptor (P35462 whole entry): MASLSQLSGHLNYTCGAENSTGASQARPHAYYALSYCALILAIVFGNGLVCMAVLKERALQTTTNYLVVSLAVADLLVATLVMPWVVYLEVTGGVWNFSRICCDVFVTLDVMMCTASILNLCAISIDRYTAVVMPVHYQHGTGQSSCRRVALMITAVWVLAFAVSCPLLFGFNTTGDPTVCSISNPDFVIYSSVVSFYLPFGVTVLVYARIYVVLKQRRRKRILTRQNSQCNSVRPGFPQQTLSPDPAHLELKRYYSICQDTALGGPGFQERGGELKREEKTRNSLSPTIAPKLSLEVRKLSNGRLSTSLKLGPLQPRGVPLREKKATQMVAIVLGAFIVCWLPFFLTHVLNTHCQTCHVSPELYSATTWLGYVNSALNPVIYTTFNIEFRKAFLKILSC
Sequence of Voltage-gated inwardly rectifying potassium channel KCNH2 (Q12809 whole entry): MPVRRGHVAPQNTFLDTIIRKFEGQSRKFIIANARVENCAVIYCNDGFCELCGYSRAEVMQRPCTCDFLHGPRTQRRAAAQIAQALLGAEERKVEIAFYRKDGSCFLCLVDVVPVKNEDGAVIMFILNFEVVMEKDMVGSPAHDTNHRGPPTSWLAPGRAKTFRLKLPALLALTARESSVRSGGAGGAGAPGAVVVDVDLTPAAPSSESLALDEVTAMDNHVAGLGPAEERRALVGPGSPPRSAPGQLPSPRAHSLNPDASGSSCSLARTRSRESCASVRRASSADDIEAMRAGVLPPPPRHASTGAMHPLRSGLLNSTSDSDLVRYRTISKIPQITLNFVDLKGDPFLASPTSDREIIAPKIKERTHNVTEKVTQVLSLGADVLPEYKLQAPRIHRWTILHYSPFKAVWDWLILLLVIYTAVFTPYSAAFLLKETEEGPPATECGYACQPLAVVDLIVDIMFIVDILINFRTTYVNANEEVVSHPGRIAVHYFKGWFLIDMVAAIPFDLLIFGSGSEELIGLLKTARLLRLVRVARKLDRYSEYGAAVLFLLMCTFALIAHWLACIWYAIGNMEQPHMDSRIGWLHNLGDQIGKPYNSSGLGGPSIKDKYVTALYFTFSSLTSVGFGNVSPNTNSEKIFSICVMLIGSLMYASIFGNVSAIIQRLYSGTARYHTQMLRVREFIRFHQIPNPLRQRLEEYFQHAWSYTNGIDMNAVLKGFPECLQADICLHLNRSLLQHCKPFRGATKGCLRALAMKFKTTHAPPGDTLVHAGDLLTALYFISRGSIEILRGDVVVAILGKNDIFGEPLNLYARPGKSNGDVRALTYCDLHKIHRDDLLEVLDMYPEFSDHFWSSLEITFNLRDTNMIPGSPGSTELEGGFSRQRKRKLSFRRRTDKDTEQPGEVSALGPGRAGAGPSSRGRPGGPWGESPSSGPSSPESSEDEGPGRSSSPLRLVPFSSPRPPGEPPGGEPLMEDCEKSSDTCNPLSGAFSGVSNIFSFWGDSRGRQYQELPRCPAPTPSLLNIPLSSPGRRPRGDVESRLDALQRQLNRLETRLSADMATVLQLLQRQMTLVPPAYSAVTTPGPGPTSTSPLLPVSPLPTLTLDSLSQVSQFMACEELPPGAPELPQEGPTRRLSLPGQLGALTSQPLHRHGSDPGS

`CCCSc1ccc2nc(NC(=O)OC)[nH]c2c1` [ALBENDAZOLE] gave an AC50 [1] greater than 10 µM, an AC50 [2] greater than 10 µM and an AC50 [3] greater than 30 µM. For the same compound, the AC50 [4] was greater than 30 µM, the AC50 (D(3) dopamine receptor) was greater than 30 µM and the AC50 (Adenosine receptor A3) was greater than 30 µM. The AC50 [5] was greater than 10 µM, the AC50 (Bile salt export pump) was greater than 300 µM and the AC50 [6] was greater than 30 µM. For the same compound, the AC50 (D(1A) dopamine receptor) was greater than 10 µM, the AC50 [7] was 10.4 µM and the AC50 [8] was greater than 30 µM. The AC50 [9] was greater than 10 µM.

Work on `C=CCc1ccccc1OCC(O)CNC(C)C` (stereo unspecified) [ALPRENOLOL] yielded an AC50 [2] greater than 30 µM, an AC50 [3] of 30 µM and an AC50 [4] greater than 30 µM. It also gave an AC50 (Vasopressin V1a receptor) greater than 30 µM, an AC50 (D(3) dopamine receptor) greater than 30 µM and an AC50 (Adenosine receptor A3) greater than 30 µM. For the same compound, the AC50 [5] was greater than 30 µM, the AC50 [6] was greater than 30 µM and the AC50 (D(1A) dopamine receptor) was greater than 30 µM. It also gave an AC50 [7] of 9.1 µM, an AC50 [8] greater than 30 µM and an AC50 [9] greater than 30 µM.

Work on `COC(c1ccccc1)(c1ccccc1)[C@H](Oc1nc(C)cc(C)n1)C(=O)O` [AMBRISENTAN] yielded an AC50 (Bile salt export pump) of 200 µM and an AC50 [7] greater than 30 µM.

With `CCc1oc2ccccc2c1C(=O)c1cc(I)c(O)c(I)c1` [BENZIODARONE] the AC50 (Bile salt export pump) was 6.3 µM.

`Oc1c(Cl)cc(Cl)c2cccnc12` [CHLOROXINE] was tested, and the AC50 [7] was greater than 30 µM.

Compound `C[N+](C)(C)CCO` [CHOLINE] has an AC50 (Bile salt export pump) greater than 300 µM.

For `CN(C)[C@@H](c1cccc(O)c1)[C@H]1CCCC[C@H]1O` [CIRAMADOL], the AC50 [7] was greater than 30 µM.

In the case of `CN(C)CC(c1ccc(O)cc1)C1(O)CCCCC1` (stereo unspecified) [DESVENLAFAXINE], the AC50 (Bile salt export pump) is reported as greater than 300 µM and the AC50 [7] is reported as greater than 30 µM.

Compound `CN(C)CCN1C(=O)c2ccccc2N(C)c2ccccc21` [DIBENZEPIN] has an AC50 [7] greater than 30 µM.

Work on `O=C(Cc1ccc(-c2ccccc2)cc1)Nc1ccccn1` [DIFENPIRAMIDE] yielded an AC50 [2] greater than 30 µM, an AC50 [4] greater than 30 µM and an AC50 (D(3) dopamine receptor) greater than 30 µM. The AC50 [6] was greater than 30 µM, the AC50 (D(1A) dopamine receptor) was greater than 30 µM and the AC50 [7] was greater than 30 µM. For the same compound, the AC50 [9] was greater than 30 µM.

`N[C@H](C(=O)O)[C@H](O)c1ccc(O)c(O)c1` [DROXIDOPA] gave an AC50 [7] greater than 30 µM.

`C[C@]12CC[C@@H]3c4ccc(O)cc4CC[C@H]3[C@@H]1C[C@@H](O)[C@@H]2O` [ESTRIOL] showed an AC50 [7] greater than 30 µM.

Work on `O=C(O)c1cc(O)ccc1O` [GENTISIC ACID] yielded an AC50 (Bile salt export pump) greater than 300 µM, an AC50 [7] greater than 30 µM and an AC50 [8] of 18 µM.

Compound `CCC1=C(C)CN(C(=O)NCCc2ccc(S(=O)(=O)NC(=O)N[C@H]3CC[C@H](C)CC3)cc2)C1=O` [GLIMEPIRIDE] has an AC50 (Bile salt export pump) of 14 µM and an AC50 [7] greater than 30 µM.

For `CC(C)Nc1ncccn1` [ISAXONINE], the AC50 (Bile salt export pump) was greater than 300 µM and the AC50 [7] was greater than 30 µM.

Compound `OCCN1C[C@H](O)[C@@H](O)[C@H](O)[C@H]1CO` [MIGLITOL] has an AC50 (Bile salt export pump) greater than 300 µM and an AC50 [7] greater than 30 µM.

`CC(=O)N[C@@H]1[C@@H](O)[C@H](O)[C@@H](CO)O[C@H]1O` [N-ACETYLGLUCOSAMINE] was tested, and the AC50 [7] was greater than 30 µM.

Compound `O=C(CCNNC(=O)c1ccncc1)NCc1ccccc1` [NIALAMIDE] has an AC50 (Bile salt export pump) greater than 300 µM and an AC50 [7] greater than 30 µM.

In the case of `CC[N+]1(C)[C@@H]2CC(OC(=O)[C@H](CO)c3ccccc3)C[C@H]1[C@@H]1O[C@@H]12` (stereo partly specified) [OXITROPIUM], the AC50 [7] is reported as greater than 30 µM.

In the case of `CC(C)(C)NC[C@H](O)COc1ccccc1C1CCCC1` [PENBUTOLOL], the AC50 (Bile salt export pump) is reported as greater than 300 µM and the AC50 [7] is reported as 11 µM.

With `CC(C)(S)[C@@H](N)C(=O)O` [PENICILLAMINE] the AC50 (Bile salt export pump) was greater than 300 µM and the AC50 [7] was greater than 30 µM.

`CN(C)S(=O)(=O)c1ccc2c(c1)N(CCCN1CCC(CCO)CC1)c1ccccc1S2` [PIPOTIAZINE] was tested, and the AC50 [7] was 0.39 µM.

`COc1cc(NC(C)CCCN)c2ncccc2c1` (stereo unspecified) [PRIMAQUINE] gave an AC50 (Bile salt export pump) of 61 µM, an AC50 [7] of 20 µM and an AC50 [8] greater than 30 µM.

`C=C[C@H]1C[N@@]2CC[C@H]1C[C@H]2[C@H](O)c1ccnc2ccc(OC)cc12` [QUININE] was tested, and the AC50 (Bile salt export pump) was greater than 300 µM.

`CS(=O)(=O)c1ccc(C2=C(c3ccccc3)C(=O)OC2)cc1` [ROFECOXIB] gave an AC50 [1] greater than 10 µM, an AC50 [2] greater than 30 µM and an AC50 [3] greater than 10 µM. It also gave an AC50 [4] greater than 10 µM, an AC50 (Vasopressin V1a receptor) greater than 10 µM and an AC50 (D(3) dopamine receptor) greater than 10 µM. It also gave an AC50 (Adenosine receptor A3) greater than 30 µM, an AC50 [5] greater than 10 µM and an AC50 [6] greater than 30 µM. It also gave an AC50 (D(1A) dopamine receptor) greater than 10 µM, an AC50 [7] greater than 30 µM and an AC50 [9] greater than 10 µM.

`CCOC(=O)[C@H](CCc1ccccc1)N[C@@H](C)C(=O)N1[C@H](C(=O)O)C[C@H]2CCCC[C@@H]21` [TRANDOLAPRIL] gave an AC50 (Bile salt export pump) of 220 µM and an AC50 [7] greater than 30 µM.

With `CCCCCCOc1nsnc1C1=CCCN(C)C1` [XANOMELINE] the AC50 (Bile salt export pump) was greater than 300 µM and the AC50 [7] was 1.3 µM.
